Test results taken from US10029986B2, “Alkynyl pyridine-substituted amide compound and pesticide” (NISSAN CHEMICAL INDUSTRIES, LTD., priority 2014, dated 2018).

Assays:
[1] = system: Botrytis cinerea; assay: Test on the preventive effect against cucumber gray mold (spore inoculation); format: in vivo; settings: 72 h, 5 ml per pot, cucumber cut leaves, conidium inoculation, 3 days at 20° C.; for pest or weed control at 500 µg/mL: test solution A 500 ppm
Description: Compounds of the present invention were dissolved in a solvent for emulsion (a mixture of Sorpol (registered trademark) 3005XL (manufactured by Toho Chemical Industry Co., Ltd.): N-methylpyrrolidone: Solvesso (registered trademark) 200 (manufactured by ExxonMobil Chemical) in a ratio of 1:5:2) to prepare 20 wt % emulsifiable concentrates. Then, distilled water was added to dilute the emulsifiable concentrates to the prescribed concentration (500 ppm), and the obtained solutions were used in the following the Test Examples 1 to 8. Cucumber (varieties: Sagami Hanjiro) was seeded in 90 cm^3 plastic pot, and at the cotyledon stage, 5 ml per pot of test solution A of the compounds of the present invention was applied. After drying in air, the treated leaves were cut and transferred in plastic containers. 30 μl of a mixture of a suspension of conidium of Botrytis cinerea and a dissolved PDA medium in a ratio of 1:1 was dropped on each treated leaf and inoculated. After the inoculation, the plastic containers were placed in 20° C. with humid conditions for 3 days, and the proportion of the formed lesion in the inoculated leaves were counted to calculate the control value in accordance with the same formula as in the Test Example 1. The test was carried out in duplicate.

[2] = system: Erysiphe polygoni (synonym: Erysiphe betae); assay: Test on the preventive effect against cucumber powdery mildew; format: in vivo; settings: 216 h, 5 ml per pot sprayed, cucumber cotyledon stage, 9 days after inoculation; for pest or weed control at 500 µg/mL: test solution A 500 ppm
Description: Compounds of the present invention were dissolved in a solvent for emulsion (a mixture of Sorpol (registered trademark) 3005XL (manufactured by Toho Chemical Industry Co., Ltd.): N-methylpyrrolidone: Solvesso (registered trademark) 200 (manufactured by ExxonMobil Chemical) in a ratio of 1:5:2) to prepare 20 wt % emulsifiable concentrates. Then, distilled water was added to dilute the emulsifiable concentrates to the prescribed concentration (500 ppm), and the obtained solutions were used in the following the Test Examples 1 to 8. Cucumber (varieties: Sagami Hanjiro) was seeded in 90 cm^3 plastic pot, and at the cotyledon stage, 5 ml per pot of test solution A of the compounds of the present invention was sprayed. After drying in air, the pot was placed in an air-conditioned greenhouse (20° C.), and a suspension of conidium of Erysiphe polygoni (synonym: Erysiphe betae) was sprayed. After the pot were replaced at the same temperature for 9 days, the proportion of the formed lesion in the inoculated leaves were counted to calculate the control value in accordance with the following formula. The test was carried out in duplicate. Control value=[1−(lesion area ratio in treated plot/lesion are a ratio in non-treated plot)]×100

[3] = system: Barber pole worm (Haemonchus contortus); assay: Insecticidal test against Barber pole worm (eggs, 96 well plate); format: in vivo; settings: 96 h, test solution B 100 ppm, 10 μl per well, 25° C. dark, 4 days after treatment, read-out: efficacy (unhatched eggs and inactive larvae relative to non-treated)
Description: (§1) Compounds of the present invention were dissolved in dimethyl sulfoxide to prepare 1 wt % solutions. Then, distilled water was added to dilute the solutions to the prescribed concentration (100 ppm), and the obtained solutions were used in the following the Test Examples 9 to 12. 60 μl of a potato dextrose 1% agar medium was added to each well of a 96 well plate, and 30 μl of sterilized water containing eggs of Barber pole worm (Haemonchus contortus) (10 eggs/3 μl) was added to each well. Further, 10 μl per well of test solution B of the compounds of the present invention was added, and the plate was left at rest at 25° C. under dark conditions.

[4] = system: Phaeosphaeria nodorum (Synonym: Septoria nodorum); assay: Test on the preventive effect against wheat glume blotch; format: in vivo; settings: Parastagonospora nodorum, 144 h, 5 ml per pot, wheat 1.3-leaf stage, 2 days inoculation chamber then 6 days at 20° C.; for pest or weed control at 500 µg/mL: test solution A 500 ppm
Description: Compounds of the present invention were dissolved in a solvent for emulsion (a mixture of Sorpol (registered trademark) 3005XL (manufactured by Toho Chemical Industry Co., Ltd.): N-methylpyrrolidone: Solvesso (registered trademark) 200 (manufactured by ExxonMobil Chemical) in a ratio of 1:5:2) to prepare 20 wt % emulsifiable concentrates. Then, distilled water was added to dilute the emulsifiable concentrates to the prescribed concentration (500 ppm), and the obtained solutions were used in the following the Test Examples 1 to 8. Wheat (varieties: Haruyutaka) was seeded in 90 cm^3 plastic pot, and at 1.3-leaf stage, 5 ml per pot of test solution A of the compounds of the present invention was applied. One day after treatment, a suspension of conidium of Phaeosphaeria nodorum (Synonym: Septoria nodorum) was sprayed to the wheat, and the pot was left in the inoculation chamber at 20° C. under humidity of 100% RH for 2 days. Then, the pot was placed in an air-conditioned greenhouse (20° C.) for 6 days. The proportion of the formed lesion in the inoculated leaves were measured to calculate the control value in accordance with the same formula as in the Test Example 1. The test was carried out in duplicate.

[5] = system: Southern root-knot nematode (Meloidogyne incoqnita); assay: Insecticidal test against Southern root-knot nematode (eggs, 96 well plate); format: in vivo; settings: 96 h, test solution B 100 ppm, 10 μl per well, 25° C. dark, 4 days after treatment, read-out: efficacy (unhatched eggs + inactive larvae relative to non-treated)
Description: as §1, with “Southern root-knot nematode (Meloidogyne incoqnita)” for “Barber pole worm (Haemonchus contortus)”

[6] = system: Sclerotinia sclerotiorum; assay: Test on the preventive effect against cucumber stem rot; format: in vivo; settings: 48 h, 5 ml per pot, agar block inoculation, 2 days at 20° C.; for pest or weed control at 500 µg/mL: test solution A 500 ppm
Description: (§2) Compounds of the present invention were dissolved in a solvent for emulsion (a mixture of Sorpol (registered trademark) 3005XL (manufactured by Toho Chemical Industry Co., Ltd.): N-methylpyrrolidone: Solvesso (registered trademark) 200 (manufactured by ExxonMobil Chemical) in a ratio of 1:5:2) to prepare 20 wt % emulsifiable concentrates. Then, distilled water was added to dilute the emulsifiable concentrates to the prescribed concentration (500 ppm), and the obtained solutions were used in the following the Test Examples 1 to 8. Cucumber (varieties: Sagami Hanjiro) was seeded in 90 cm^3 plastic pot, and at the cotyledon stage, 5 ml per pot of test solution A of the compounds of the present invention was applied. After drying in air, the pot was transferred in a plastic container, and an agar blocks (diameter: 5 mm) containing Sclerotinia sclerotiorum which was preliminarily cultivated in a PDA medium was inoculated to the seed leaves of the cucumber treated with the solution. After the inoculation, the plastic container was covered with a plastic sheet, and placed at 20° C. and humidified for 2 days, thus the proportion of the formed lesion in the inoculated leaves were measured to calculate the control value in accordance with the same formula as in the Test Example 1. The test was carried out in duplicate.

[7] = system: Blumeria graminis f. sp. tritici; assay: Test on the preventive effect against wheat powdery mildew; format: in vivo; settings: 168 h, 5 ml per pot, wheat 1.3-leaf stage, 7 days after inoculation; for pest or weed control at 500 µg/mL: test solution A 500 ppm
Description: Compounds of the present invention were dissolved in a solvent for emulsion (a mixture of Sorpol (registered trademark) 3005XL (manufactured by Toho Chemical Industry Co., Ltd.): N-methylpyrrolidone: Solvesso (registered trademark) 200 (manufactured by ExxonMobil Chemical) in a ratio of 1:5:2) to prepare 20 wt % emulsifiable concentrates. Then, distilled water was added to dilute the emulsifiable concentrates to the prescribed concentration (500 ppm), and the obtained solutions were used in the following the Test Examples 1 to 8. Wheat (varieties: Norin 61) was seeded in 90 cm^3 plastic pot, and at the 1.3-leaf stage, 5 ml per pot of test solution A of the compounds of the present invention were applied. One day after treatment, the pot was placed in an air-conditioned greenhouse (20° C.), and conidium of Blumeria graminis f. sp. tritici was inoculated to the wheat. 7 days after, the proportion of the formed lesion in the inoculated leaves were measured to calculate the control value in accordance with the same formula as in the Test Example 1. The test was carried out in duplicate.

[8] = system: Botrytis cinerea; assay: Test on the preventive effect against cucumber gray mold (mycelium inoculation); format: in vivo; settings: 48 h, 5 ml per pot, cucumber cotyledon, agar block inoculation, 2 days at 20° C.; for pest or weed control at 500 µg/mL: test solution A 500 ppm
Description: as §2, with “applied. On the next day,” for “applied. After drying in air,”, “containing Botrytis cinerea” for “containing Sclerotinia sclerotiorum”, “inoculated on” for “inoculated to”, “the cotyledon” for “the seed leaves”, “sheet, then” for “sheet, and”, “2 days. Thus” for “2 days, thus”

Row | Structure (SMILES) | pest or weed control at 500 µg/mL [1] [%] | pest or weed control at 500 µg/mL [2] [%] | pest or weed control at 500 µg/mL [4] [%] | pest or weed control at 500 µg/mL [6] [%] | melting point [°C] | also measured
1 | O=C(NCC(CC(F)(F)F)c1ncc(C#CC2CC2)cc1Cl)c1ccccc1C(F)(F)F (stereo not shown) [1-010] | ≥ 70 | ≥ 70 | ≥ 70 | ≥ 70 | – | pest or weed control at 100 µg/mL [3]: ≥ 50%; pest or weed control at 100 µg/mL [5]: ≥ 50%
2 | CCOC(c1ncc(C#CC2CC2)cc1Cl)C(C)NC(=O)c1ccccc1C(F)(F)F (stereo not shown) [1-026] | ≥ 70 | ≥ 70 | ≥ 70 | ≥ 70 | – | pest or weed control at 500 µg/mL [7]: ≥ 70%; pest or weed control at 500 µg/mL [8]: ≥ 70%
3 | CC(NC(=O)c1ccccc1C(F)(F)F)C(OCC(F)(F)F)c1ncc(C#CC2CC2)cc1Cl (stereo not shown) [1-027] | ≥ 70 | ≥ 70 | ≥ 70 | ≥ 70 | – | pest or weed control at 500 µg/mL [7]: ≥ 70%; pest or weed control at 500 µg/mL [8]: ≥ 70%
4 | CC(NC(=O)c1ccccc1C(F)(F)F)C(SCC(F)(F)F)c1ncc(C#CC2CC2)cc1Cl (stereo not shown) [1-032] | – | ≥ 70 | ≥ 70 | – | – | –
5 | O=C(NCC(F)(F)c1ncc(C#CC2CC2)cc1Cl)c1ncccc1C(F)(F)F [2-001] | – | – | – | – | 157 to 158 | –
6 | CCOC(c1ncc(C#CC2CC2)cc1Cl)C(C)NC(=O)c1cccnc1C(F)F (stereo not shown) [3-022] | – | – | – | – | – | pest or weed control at 100 ppm ([7]; 100 ppm solution (symbol *)): ≥ 70%; pest or weed control at 100 ppm ([1]; 100 ppm solution (symbol *)): ≥ 70%; pest or weed control at 100 ppm ([2]; 100 ppm solution (symbol *)): ≥ 70%; pest or weed control at 100 ppm ([8]; 100 ppm solution (symbol *)): ≥ 70%; pest or weed control at 100 ppm ([4]; 100 ppm solution (symbol *)): ≥ 70%; pest or weed control at 100 ppm ([6]; 100 ppm solution (symbol *)): ≥ 70%
7 | CC(NC(=O)c1cccnc1Cl)C(SCC(F)(F)F)c1ncc(C#CC2CC2)cc1Cl (stereo not shown) [3-032] | ≥ 70 | ≥ 70 | ≥ 70 | ≥ 70 | – | –
8 | CC(NC(=O)c1cccnc1C(F)(F)F)C(SCC(F)(F)F)c1ncc(C#CC2CC2)cc1Cl (stereo not shown) [3-034] | ≥ 70 | ≥ 70 | ≥ 70 | ≥ 70 | – | pest or weed control at 500 µg/mL [8]: ≥ 70%
9 | CC(NC(=O)c1cccnc1C(F)(F)F)C(SCC(F)(F)F)c1ncc(C#CC2CC2)cc1Cl (stereo not shown) [3-034a] | – | – | – | – | 65 to 66 | –
10 | CC(F)(CNC(=O)c1cccnc1C(F)F)c1ncc(C#CC2CC2)cc1Cl (stereo not shown) [3-038, N-[2-[3-chloro-5-(cyclopropylethynyl)pyridin-2-yl]-2-fluoropropyl]-2-(difluoromethyl)nicotinamide] | – | – | – | – | 113 to 115 | –
11 | Cn1cc(C(=O)NCC(F)(F)c2ncc(C#CCF)cc2Cl)c(C(F)F)n1 [8-005, N-[2-[3-chloro-5-(3-fluoro-1-propynyl)pyridin-2-yl]-2,2-difluoroethyl]-3-difluoromethyl-1-methyl-1H-pyrazole-4-carboxamide] | – | – | – | – | 110 to 111 | –
12 | Cn1cc(C(=O)NCC(C#N)c2ncc(C#CC3CC3)cc2Cl)c(C(F)F)n1 (stereo not shown) [8-021, N-[2-[3-chchloro-5-(cyclopropylethynyl)pyridin-2-yl]-2-cyanoethyl]-3-difluoromethyl-1-methyl-1H-pyrazole-4-carboxamide] | – | – | – | – | 43 to 46 | –
